Measurements published in ChEMBL document CHEMBL3769328, “Design and optimization of tricyclic gamma-secretase modulators” (Bioorg Med Chem Lett, 2016).
Active and inactive are the calls of the source. The calls are words filed in the database; no cut-off is given here.

Assays:
Gamma-secretase [1] = test: Modulation of gamma secretase in human H4 cells assessed as inhibition of amyloid beta (1 to 42) production; assay type: cell-based
Cytochrome P450 3A4 = Cytochrome P450 3A4 (Homo sapiens, UniProt P08684); test: Inhibition of CYP3A4 (unknown origin) by fluorescence assay
Mus musculus [2] = test: Anti-alzheimer activity in 3x transgenic mouse model of Alzheimer's disease assessed as amyloid beta (1 to 42) level in brain at 3 mg/kg, po measured after 3 hrs by ELISA relative to control; assay type: functional
[3] = Plasma protein binding in human; assay type: ADME, cell-free; details: read-out: PPB
[4] = Ratio of total drug level in brain to plasma in 3x transgenic mouse model of Alzheimer's disease at 30 mg/kg, po measured after 3 hrs; assay type: ADME, organism-based; details: 3x transgenic Alzheimer's disease model, read-out: BPR
Mus musculus [5] = test: Anti-alzheimer activity in 3x transgenic mouse model of Alzheimer's disease assessed as amyloid beta (1 to 42) level in brain at 100 mg/kg, po measured after 3 hrs by ELISA relative to control; assay type: functional
Mus musculus [6] = test: Effect on total amyloid beta production in 3x transgenic mouse model of Alzheimer's disease at 1 to 100 mg/kg, po measured after 3 hrs by ELISA; assay type: ADME, organism-based; details: in vivo
[7] = Plasma protein binding in mouse; assay type: ADME, cell-free; details: read-out: PPB
[8] = Plasma concentration in 3x transgenic Alzheimer's disease mouse model at 1 mg/kg, po measured after 3 hrs; assay type: ADME, organism-based; details: 3x transgenic Alzheimer's disease model
[9] = Total drug level in 3x transgenic Alzheimer's disease mouse brain at 30 mg/kg, po measured after 3 hrs; assay type: ADME, organism-based; details: 3x transgenic Alzheimer's disease model, read-out: Drug uptake
[10] = Plasma concentration in 3x transgenic Alzheimer's disease mouse model at 3 mg/kg, po measured after 3 hrs; assay type: ADME, organism-based; details: 3x transgenic Alzheimer's disease model
Mus musculus [11] = test: Anti-alzheimer activity in 3x transgenic mouse model of Alzheimer's disease assessed as amyloid beta (1 to 42) level in brain at 10 mg/kg, po measured after 3 hrs by ELISA relative to control; assay type: functional
Mus musculus [12] = test: Anti-alzheimer activity in 3x transgenic mouse model of Alzheimer's disease assessed as amyloid beta (1 to 42) level in brain at 1 mg/kg, po measured after 3 hrs by ELISA relative to control; assay type: functional
Liver microsome = test: Drug metabolism in human liver microsomes; assay type: ADME
[13] = Plasma concentration in 3x transgenic Alzheimer's disease mouse model at 10 mg/kg, po measured after 3 hrs; assay type: ADME, organism-based; details: 3x transgenic Alzheimer's disease model
Mus musculus [14] = test: Anti-alzheimer activity in 3x transgenic mouse model of Alzheimer's disease assessed as amyloid beta (1 to 42) level in brain at 30 mg/kg, po measured after 3 hrs by ELISA relative to control; assay type: functional
[15] = Plasma concentration in 3x transgenic Alzheimer's disease mouse model at 30 mg/kg, po measured after 3 hrs; assay type: ADME, organism-based; details: 3x transgenic Alzheimer's disease model
[16] = target: Voltage-gated inwardly rectifying potassium channel KCNH2 (Homo sapiens, UniProt Q12809); test: Inhibition of human ERG by thallium flux assay
[17] = Plasma concentration in 3x transgenic Alzheimer's disease mouse model at 100 mg/kg, po measured after 3 hrs; assay type: ADME, organism-based; details: 3x transgenic Alzheimer's disease model
Gamma-secretase [18] = test: Modulation of gamma secretase in human H4 cells transfected with APP751 SWE clone 8.20 mutant assessed as inhibition of amyloid beta (1 to 42) production after 19 hrs; assay type: cell-based
Mus musculus [19] = species on record: Mus musculus; details: Brain, 30 mg/kg

Chain of Cytochrome P450 3A4 (P08684 whole entry): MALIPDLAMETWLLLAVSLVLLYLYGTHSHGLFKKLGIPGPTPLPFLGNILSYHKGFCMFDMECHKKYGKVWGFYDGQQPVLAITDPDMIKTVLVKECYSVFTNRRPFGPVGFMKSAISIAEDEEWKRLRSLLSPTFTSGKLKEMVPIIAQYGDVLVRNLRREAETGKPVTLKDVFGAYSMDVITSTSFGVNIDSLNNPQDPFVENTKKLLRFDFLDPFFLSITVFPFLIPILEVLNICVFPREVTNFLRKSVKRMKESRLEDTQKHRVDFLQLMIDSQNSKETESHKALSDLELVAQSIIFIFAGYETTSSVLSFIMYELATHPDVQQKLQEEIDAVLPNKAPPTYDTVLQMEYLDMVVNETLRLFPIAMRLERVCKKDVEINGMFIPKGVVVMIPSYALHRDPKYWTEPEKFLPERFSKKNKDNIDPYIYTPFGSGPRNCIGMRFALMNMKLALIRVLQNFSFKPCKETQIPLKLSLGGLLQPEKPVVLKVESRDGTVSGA
Chain of Voltage-gated inwardly rectifying potassium channel KCNH2 (Q12809 whole entry): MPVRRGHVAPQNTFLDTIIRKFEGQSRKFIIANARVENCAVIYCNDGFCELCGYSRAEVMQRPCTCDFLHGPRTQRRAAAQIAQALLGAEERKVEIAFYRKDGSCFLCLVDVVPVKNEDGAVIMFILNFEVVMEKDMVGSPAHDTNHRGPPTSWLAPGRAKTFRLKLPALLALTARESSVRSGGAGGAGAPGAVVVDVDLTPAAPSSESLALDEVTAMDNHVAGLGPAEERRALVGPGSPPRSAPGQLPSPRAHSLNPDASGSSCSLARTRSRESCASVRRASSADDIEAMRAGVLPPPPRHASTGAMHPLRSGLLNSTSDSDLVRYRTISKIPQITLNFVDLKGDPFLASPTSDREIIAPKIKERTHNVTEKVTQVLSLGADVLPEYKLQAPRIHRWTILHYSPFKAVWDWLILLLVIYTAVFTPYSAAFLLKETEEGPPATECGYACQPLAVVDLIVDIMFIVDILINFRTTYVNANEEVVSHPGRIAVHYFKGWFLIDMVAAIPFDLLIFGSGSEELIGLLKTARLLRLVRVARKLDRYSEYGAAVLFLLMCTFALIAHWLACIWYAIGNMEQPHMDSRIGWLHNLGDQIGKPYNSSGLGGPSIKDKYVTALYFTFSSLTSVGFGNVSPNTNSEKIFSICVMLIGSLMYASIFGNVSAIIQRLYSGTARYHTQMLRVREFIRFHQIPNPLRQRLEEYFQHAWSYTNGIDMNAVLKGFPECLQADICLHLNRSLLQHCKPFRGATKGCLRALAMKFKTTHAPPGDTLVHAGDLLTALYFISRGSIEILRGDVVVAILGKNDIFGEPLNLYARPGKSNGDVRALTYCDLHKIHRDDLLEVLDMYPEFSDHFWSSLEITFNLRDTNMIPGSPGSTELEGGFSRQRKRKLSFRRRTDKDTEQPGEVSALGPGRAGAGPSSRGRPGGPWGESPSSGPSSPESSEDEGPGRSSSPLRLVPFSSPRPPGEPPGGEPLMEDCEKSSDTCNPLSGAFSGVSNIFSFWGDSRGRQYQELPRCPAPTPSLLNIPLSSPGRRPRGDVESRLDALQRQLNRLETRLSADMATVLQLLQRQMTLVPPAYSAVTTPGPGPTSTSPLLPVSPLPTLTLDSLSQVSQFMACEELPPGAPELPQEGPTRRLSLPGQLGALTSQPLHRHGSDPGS

`Clc1cn(-c2ccc3c(c2)CCc2sc(Cc4ccccc4)nc2N3)cn1` gave an IC50 (Gamma-secretase [1]; read-out: IC50) of 0.14 µM.

In the case of `CC(c1ccccc1)c1ccc2c(n1)Nc1ccc(-n3cnc(Cl)c3)cc1NC2=O` (racemic), the IC50 (Gamma-secretase [1]; read-out: IC50) is reported as 0.2 µM and the IC50 (Cytochrome P450 3A4) is reported as > 13 µM.

Compound `Cc1ncn(-c2ccc3c(c2)NC(=O)c2ccc(Cc4ccccc4)nc2N3)n1` has an IC50 (Gamma-secretase [1]; read-out: IC50) of 0.46 µM and an IC50 (Cytochrome P450 3A4) of 2 µM.

With `Cc1cn(-c2ccc3c(c2)CCc2sc(Cc4ccccc4)nc2N3)cn1` the Activity (Mus musculus [2]) was 100%, the IC50 (Gamma-secretase [1]; read-out: IC50) was 0.035 µM and the fraction unbound [3] was < 0.002. The Kp at 3 h [4] was 1.1, the Activity (Mus musculus [5]) was 50% and the Activity (Mus musculus [6]) was “Non-toxic”. For the same compound, the fraction unbound [7] was < 0.002, the concentration at 3 h [8] was 0.21 µM and the concentration at 3 h [9] was 8.9 µM. For the same compound, the concentration at 3 h [10] was 0.48 µM, the Activity (Mus musculus [11]) was 70% and the Activity (Mus musculus [12]) was 110%. The Drug metabolism (Liver microsome) was 0.035 nmol/min/mg, the concentration at 3 h [13] was 3.8 µM and the Activity (Mus musculus [14]) was 60%. For the same compound, the IC50 (Cytochrome P450 3A4) was 0.7 µM, the concentration at 3 h [15] was 8 µM and the “inhibition (INH)” value [16] was “Not Active”. It also gave a concentration at 3 h [17] of 25 µM.

`CNc1nc(Nc2ccc(-n3cncn3)c(OC)c2)nc(-c2ccccc2)n1` showed an IC50 (Gamma-secretase [18]) of 0.18 µM.

`Cc1cn(-c2ccc3c(c2)NC(=O)c2ccc(C(C)c4ccccc4)nc2N3)cn1` (racemic) gave an IC50 (Gamma-secretase [1]; read-out: IC50) of 0.1 µM and an IC50 (Cytochrome P450 3A4) of 0.2 µM.

Work on `Cc1ncn(-c2ccc3c(c2)CCc2sc(Cc4ccccc4)nc2N3)n1` yielded an IC50 (Gamma-secretase [1]; read-out: IC50) of 0.14 µM.

`Cc1ncn(-c2ccc3c(c2)CCc2cn(Cc4ccccc4)nc2N3)n1` showed an IC50 (Gamma-secretase [1]; read-out: IC50) of 0.18 µM and an IC50 (Cytochrome P450 3A4) of 0.3 µM.

In the case of `O=C1Nc2cc(-n3cnc(Cl)c3)ccc2Nc2nc(Cc3ccccc3)ccc21`, the IC50 (Gamma-secretase [1]; read-out: IC50) is reported as 0.19 µM and the IC50 (Cytochrome P450 3A4) is reported as > 13 µM.

In the case of `Clc1cn(-c2ccc3c(c2)CCc2cn(Cc4ccccc4)nc2N3)cn1`, the IC50 (Gamma-secretase [1]; read-out: IC50) is reported as 0.04 µM and the IC50 (Cytochrome P450 3A4) is reported as 0.3 µM.

For `Cc1cn(-c2ccc3c(c2)NC(=O)c2ccc(Cc4ccccc4)nc2N3)cn1`, the IC50 (Gamma-secretase [1]; read-out: IC50) was 0.05 µM, the inhibition (Mus musculus [19]) was “inactive” and the IC50 (Cytochrome P450 3A4) was 0.15 µM.

For `Cc1cn(-c2ccc3c(c2)CCc2ccc(Cc4ccc(F)cc4)nc2C3=O)cn1`, the IC50 (Gamma-secretase [1]; read-out: IC50) was 1 µM and the IC50 (Cytochrome P450 3A4) was 0.3 µM.

`Cc1cncn1-c1ccc2c(c1)CCc1sc(Cc3ccc(F)cc3)nc1N2` showed an IC50 (Gamma-secretase [1]; read-out: IC50) of 1.8 µM.

With `Cc1ncn(-c2ccc3c(c2)CCc2cnn(Cc4ccccc4)c2N3)n1` the IC50 (Gamma-secretase [1]) was “Not Active”.

`Cc1cc(-c2ccc3c(c2)CCc2sc(Cc4ccccc4)nc2N3)ccn1` gave an IC50 (Gamma-secretase [1]; read-out: IC50) of 0.05 µM.

`COc1ccc(Cc2nc3c(n2C)CCc2cc(-n4cnc(C)c4)ccc2C3=O)cc1` gave an IC50 (Gamma-secretase [1]; read-out: IC50) of 1.1 µM.

Work on `N#Cc1ccc2c(c1)CCc1sc(Cc3ccccc3)nc1N2` yielded an IC50 (Gamma-secretase [1]; read-out: IC50) of 1.2 µM.

Compound `Cc1cn(-c2cc3c(cc2F)Nc2nc(Cc4ccccc4)ccc2C(=O)N3)cn1` has an IC50 (Gamma-secretase [1]; read-out: IC50) of 0.82 µM and an IC50 (Cytochrome P450 3A4) of 0.03 µM.

In the case of `Clc1cn(-c2ccc3c(c2)CCc2cnn(Cc4ccccc4)c2N3)cn1`, the IC50 (Gamma-secretase [1]) is reported as “Not Active”.

With `CNc1nc(Cc2ccccc2)nc(Nc2ccc(-n3cnc(C)c3)c(OC)c2)n1` the IC50 (Gamma-secretase [18]) was 0.029 µM.

`Cc1cn(-c2ccc3c(c2)CCc2sc(Cc4ccc(F)cc4)nc2N3)cn1` showed an IC50 (Gamma-secretase [1]; read-out: IC50) of 0.02 µM.

For `Cc1cc(-c2ccc3c(c2)CCc2sc(Cc4ccc(F)c(F)c4)nc2N3)ccn1`, the IC50 (Gamma-secretase [1]; read-out: IC50) was 0.12 µM.

In the case of `COc1ccc(Cc2nc3c(n2C)CCc2cc(-c4ccnc(C)c4)ccc2C3=O)cc1`, the IC50 (Gamma-secretase [1]; read-out: IC50) is reported as 0.38 µM and the IC50 (Cytochrome P450 3A4) is reported as 0.3 µM.

For `Cc1cc(-c2ccc3c(c2)CCc2sc(Cc4ccc(F)cc4)nc2N3)ccn1`, the IC50 (Gamma-secretase [1]; read-out: IC50) was 0.08 µM.

`COc1ccc(Cc2nc3c(o2)CCc2cc(-c4ccnc(C)c4)ccc2C3=O)cc1` gave an IC50 (Gamma-secretase [1]; read-out: IC50) of 0.3 µM and an IC50 (Cytochrome P450 3A4) of 0.3 µM.
